In ChEMBL document CHEMBL5303304, “EUbOPEN Chemogenomics Library - IncuCyte” (2023):

What was measured:
Assay type in all cases: toxicity, cell-based
HEK-293T = assay: Incucyte cell viability with HEK293T; details: human, 10 µM, compound concentration 10 uM
Fibroblast = assay: Incucyte cell viability with human fibroblast; details: 10 µM, compound concentration 10 uM
U2OS = assay: Incucyte cell viability with U2OS; details: human, 10 µM, compound concentration 10 uM
Further: unitless GR value; below 1 slowed growth and below 0 cell loss.

| SMILES | Growth Rate (HEK-293T; 0 h, replicate number 2) | Growth Rate (HEK-293T; 6 h, replicate number 1) | Growth Rate (HEK-293T; 6 h, replicate number 2) | Growth Rate (HEK-293T; 12 h, replicate number 1) | Growth Rate (HEK-293T; 12 h, replicate number 2) | Growth Rate (HEK-293T; 18 h, replicate number 1) | Growth Rate (HEK-293T; 18 h, replicate number 2) | Growth Rate (HEK-293T; 24 h, replicate number 1) | Growth Rate (Fibroblast; 24 h, replicate number 2) | Growth Rate (U2OS; 12 h, replicate number 1) | Growth Rate (U2OS; 18 h, replicate number 1) | Growth Rate (U2OS; 18 h, replicate number 2) | Growth Rate (U2OS; 24 h, replicate number 1) | Growth Rate (U2OS; 24 h, replicate number 2) | Growth Rate (Fibroblast; 0 h, replicate number 2) | Growth Rate (Fibroblast; 6 h, replicate number 1) | Growth Rate (Fibroblast; 18 h, replicate number 2) | Growth Rate (U2OS; 6 h, replicate number 1) | Growth Rate (U2OS; 0 h, replicate number 1) | Growth Rate (U2OS; 12 h, replicate number 2) | further results |
| --- | --- | --- | --- | --- | --- | --- | --- | --- | --- | --- | --- | --- | --- | --- | --- | --- | --- | --- | --- | --- | --- |
| CS(=O)(=O)c1ccc(-c2cnc(N)c(C(=O)Nc3ccccc3)n2)cc1 | 0.8 | -0.29 | -0.17 | -0.15 | -0.14 | 0.01 | -0.07 | 0.07 | 0.74 | 0.87 | 0.77 | 0.93 | 0.88 | 0.77 |  |  |  |  |  |  | Growth Rate (HEK-293T; 24 h, replicate number 2): 0.05; Growth Rate (Fibroblast; 0 h, replicate number 1): -0.93; Growth Rate (Fibroblast; 24 h, replicate number 1): 0.85 |
| Cn1cc(-c2ccc(-c3cncc(Cl)c3N3CCC4(CCNC4=O)CC3)cc2)cn1 | 0.95 | 0.13 | 0.24 | 0.3 | 0.63 | 0.34 | 0.67 | 0.5 | 0.8 | 0.59 | 0.96 |  |  |  | -0.3 | 0.61 | 0.87 | 0.58 |  |  | Growth Rate (HEK-293T; 24 h, replicate number 2): 0.67; Growth Rate (Fibroblast; 12 h, replicate number 1): 0.75; Growth Rate (Fibroblast; 18 h, replicate number 1): 0.56; Growth Rate (Fibroblast; 24 h, replicate number 1): 0.49; Growth Rate (U2OS; 0 h, replicate number 2): 0.82 |
| CN(C)C/C=C/C(=O)Nc1ccc(C(=O)Nc2cccc(Nc3ncc(Cl)c(-c4c[nH]c5ccccc45)n3)c2)cc1 | -0.53 |  |  |  |  |  |  |  | 0.7 |  | 0.29 | 0.55 | 0.16 | 0.28 |  |  |  |  | -1 | 0.57 |  |
| O=C(CNC(=O)c1ccc(-c2ccccc2)cc1)NC1CCCc2ccccc21 (stereo unspecified) | -0.65 | 0.23 | 0.73 | -0.08 | 0.41 | 0.26 | 0.38 | 0.39 | 0.7 | 0.67 | 0.43 |  | 0.55 | 0.93 |  |  | 0.42 | 0.38 | 0.77 | 0.9 | Growth Rate (HEK-293T; 24 h, replicate number 2): 0.46; Growth Rate (Fibroblast; 6 h, replicate number 2): 0.27; Growth Rate (Fibroblast; 12 h, replicate number 2): 0.26 |
| COc1ccc(N(C(=O)Nc2c(C)cccc2C)c2cc(Nc3ccc(N4CCN(C)CC4)cc3)ncn2)c(OC)c1 | 1 |  |  |  |  |  |  |  |  | 0.77 | 0.25 | 0.14 | -0.25 | -0.2 | -0.56 |  |  | 0.85 | 0.61 | 0.57 | Growth Rate (U2OS; 6 h, replicate number 2): 0.97 |
| O=C(NCc1ccc(F)cc1)C1CCN(S(=O)(=O)c2cc(Cl)cc(Cl)c2)CC1 | -0.42 | 0.66 |  | 0.95 |  | 0.7 |  | 0.78 | 0.67 | 0.86 | 0.9 | 0.98 |  | 0.98 | 0.31 | 0.84 | 0.46 | 0.81 |  | 0.98 | Growth Rate (Fibroblast; 12 h, replicate number 1): 0.58; Growth Rate (Fibroblast; 12 h, replicate number 2): 0.3; Growth Rate (Fibroblast; 18 h, replicate number 1): 0.84; Growth Rate (Fibroblast; 24 h, replicate number 1): 0.76; Growth Rate (U2OS; 0 h, replicate number 2): 0.76; Growth Rate (U2OS; 6 h, replicate number 2): 0.72 |
| CN(C)C(=O)Cn1cc(-c2ccc(-c3nnc4ccccn34)cc2)cn1 | 0.91 | 0.81 |  | 0.91 |  |  |  |  | 0.99 | 0.76 |  | 0.96 | 0.67 | 0.99 | -0.65 | 0.9 | 0.9 | 0.9 | 0.43 | 0.88 | Growth Rate (Fibroblast; 12 h, replicate number 2): 0.97 |
| COCCCS(=O)(=O)c1cc(C)c(-c2ccc(F)c3c2CC[C@H]3Oc2ccc3c(c2)OC[C@H]3CC(=O)O)c(C)c1 | -0.02 | 0.78 |  | 0.83 |  | 0.82 |  | 0.81 |  |  | 0.79 | 0.88 |  | 0.9 | 0.7 | 1 |  | 0.63 |  | 0.95 | Growth Rate (U2OS; 0 h, replicate number 2): -1; Growth Rate (U2OS; 6 h, replicate number 2): 0.65 |
